Earlier results as cited in patent US6689302B2, “Method of making an antimicrobial tympanostomy tube” (Medtronic Xomed, Inc., priority 1993, dated 2004).

Tested on: postoperative otorrhea
Settings: Baker and Chole trial; ophthalmic solution used as otic drops

Gentamicin
incidence of infection: significantly reduced
